# PubChem BioAssay AID2060901 (Molecular Pharmacology Branch, DTP, NCI, 2025)
# System: 422866-222-R5-J1-PDC complex spheroids viability
# Assay: Anticancer human tumor 422866-222-R5-J1-PDC patient-derived pancreatic adenocarcinoma cell line growth inhibition [RAS]
# Settings: for IC50: curve of first compound; for viability, T/C: stronger effect = lower value
# In short: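 Tumour cells grown as complex spheroids with HUVEC endothelial cells and mesenchymal stem cells, treated with RAS pathway inhibitor combinations. Each agent spans half-log steps from near clinical Cmax, or 10 microM where Cmax is unknown.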
# [1] = second compound 0.000949 µM, first compound 0.0316 µM
# [2] = second compound 0.000949 µM, first compound 0.1 µM
# [3] = second compound 0.000949 µM, first compound 0.316 µM
# [4] = second compound 0.000949 µM, first compound 1 µM
# [5] = second compound 0.000949 µM, first compound 3.16 µM
# [6] = second compound 0.000949 µM, first compound 10 µM
# [7] = second compound 0.003 µM, first compound 0.0316 µM
# [8] = second compound 0.003 µM, first compound 0.1 µM
# [9] = second compound 0.003 µM, first compound 0.316 µM
# [10] = second compound 0.003 µM, first compound 1 µM
# [11] = second compound 0.003 µM, first compound 3.16 µM
# [12] = second compound 0.003 µM, first compound 10 µM
# [13] = second compound 0.00949 µM, first compound 0.0316 µM
# [14] = second compound 0.00949 µM, first compound 0.1 µM
# [15] = second compound 0.00949 µM, first compound 0.316 µM
# [16] = second compound 0.00949 µM, first compound 1 µM
# [17] = second compound 0.00949 µM, first compound 3.16 µM
# [18] = second compound 0.00949 µM, first compound 10 µM
# [19] = second compound 0.03 µM, first compound 0.0316 µM
# [20] = second compound 0.03 µM, first compound 0.1 µM
# [21] = second compound 0.03 µM, first compound 0.316 µM
# [22] = second compound 0.03 µM, first compound 1 µM
# [23] = second compound 0.03 µM, first compound 3.16 µM
# [24] = second compound 0.03 µM, first compound 10 µM
# [25] = second compound 0.0949 µM, first compound 0.0316 µM
# [26] = second compound 0.0949 µM, first compound 0.1 µM
# [27] = second compound 0.0949 µM, first compound 0.316 µM
# [28] = second compound 0.0949 µM, first compound 1 µM
# [29] = second compound 0.0949 µM, first compound 3.16 µM
# [30] = second compound 0.0949 µM, first compound 10 µM
# [31] = second compound 0.3 µM, first compound 0.0316 µM
# [32] = second compound 0.3 µM, first compound 0.1 µM
# [33] = second compound 0.3 µM, first compound 0.316 µM
# [34] = second compound 0.3 µM, first compound 1 µM
# [35] = second compound 0.3 µM, first compound 3.16 µM
# [36] = second compound 0.3 µM, first compound 10 µM
# [37] = second compound 0.000949 µM, first compound 0.00316 µM
# [38] = second compound 0.000949 µM, first compound 0.01 µM
# [39] = second compound 0.003 µM, first compound 0.00316 µM
# [40] = second compound 0.003 µM, first compound 0.01 µM
# [41] = second compound 0.00949 µM, first compound 0.00316 µM
# [42] = second compound 0.00949 µM, first compound 0.01 µM
# [43] = second compound 0.03 µM, first compound 0.00316 µM
# [44] = second compound 0.03 µM, first compound 0.01 µM
# [45] = second compound 0.0949 µM, first compound 0.00316 µM
# [46] = second compound 0.0949 µM, first compound 0.01 µM
# [47] = second compound 0.3 µM, first compound 0.00316 µM
# [48] = second compound 0.3 µM, first compound 0.01 µM
# 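Also: spheroids exposed to compounds for 7 days.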
# 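For viability, T/C in this document: 100% = DMSO vehicle control viability.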
smiles,measurement,setting,value
CC(C)NCC(C(=O)N1CCN(c2ncnc3c2C(C)CC3O)CC1)c1ccc(Cl)cc1 (stereo not drawn) + CCn1c(-c2cccnc2C(C)OC)c2c3cc(ccc31)N1CCOC(CC(NC(=O)C(C(C)C)N(C)C(=O)C3(F)CCN(C(=O)C#CC(C)(C)N(C)C)CC3)C(=O)N3CCCC(N3)C(=O)OCC(C)(C)C2)C1,IC50,second compound 0.000949 µM,< 31.6 nM
same,IC50,second compound 0.003 µM,< 31.6 nM
same,IC50,second compound 0.00949 µM,< 31.6 nM
same,IC50,second compound 0.03 µM,< 31.6 nM
same,IC50,second compound 0.0949 µM,< 31.6 nM
same,IC50,second compound 0.3 µM,< 31.6 nM
same,"viability, T/C",[1],23%
same,"viability, T/C",[2],23.2%
same,"viability, T/C",[3],17.5%
same,"viability, T/C",[4],25%
same,"viability, T/C",[5],30.9%
same,"viability, T/C",[6],29.7%
same,"viability, T/C",[7],22.5%
same,"viability, T/C",[8],17.6%
same,"viability, T/C",[9],14.4%
same,"viability, T/C",[10],14.7%
same,"viability, T/C",[11],14.4%
same,"viability, T/C",[12],16.7%
same,"viability, T/C",[13],21.1%
same,"viability, T/C",[14],18.9%
same,"viability, T/C",[15],13.8%
same,"viability, T/C",[16],13.3%
same,"viability, T/C",[17],14.8%
same,"viability, T/C",[18],14.6%
same,"viability, T/C",[19],17.5%
same,"viability, T/C",[20],16%
same,"viability, T/C",[21],12.9%
same,"viability, T/C",[22],12.1%
same,"viability, T/C",[23],14.2%
same,"viability, T/C",[24],16.2%
same,"viability, T/C",[25],15.2%
same,"viability, T/C",[26],12%
same,"viability, T/C",[27],11.8%
same,"viability, T/C",[28],13.2%
same,"viability, T/C",[29],15.3%
same,"viability, T/C",[30],14.1%
same,"viability, T/C",[31],13.8%
same,"viability, T/C",[32],13.4%
same,"viability, T/C",[33],11.3%
same,"viability, T/C",[34],11.4%
same,"viability, T/C",[35],14.7%
same,"viability, T/C",[36],11.6%
CC(C)n1nc(-c2ccc3oc(N)nc3c2)c2c(N)ncnc21 + CCn1c(-c2cccnc2C(C)OC)c2c3cc(ccc31)N1CCOC(CC(NC(=O)C(C(C)C)N(C)C(=O)C3(F)CCN(C(=O)C#CC(C)(C)N(C)C)CC3)C(=O)N3CCCC(N3)C(=O)OCC(C)(C)C2)C1,IC50,second compound 0.000949 µM,< 0.316 nM
same,IC50,second compound 0.003 µM,< 0.316 nM
same,IC50,second compound 0.00949 µM,< 0.316 nM
same,IC50,second compound 0.03 µM,< 0.316 nM
same,IC50,second compound 0.0949 µM,< 0.316 nM
same,IC50,second compound 0.3 µM,< 0.316 nM
same,"viability, T/C","second compound 0.000949 µM, first compound 0.000316 µM",26.9%
same,"viability, T/C","second compound 0.000949 µM, first compound 0.001 µM",24.3%
same,"viability, T/C",[37],24.7%
same,"viability, T/C",[38],22.9%
same,"viability, T/C",[1],23.1%
same,"viability, T/C",[2],22.1%
same,"viability, T/C","second compound 0.003 µM, first compound 0.000316 µM",23.4%
same,"viability, T/C","second compound 0.003 µM, first compound 0.001 µM",18.7%
same,"viability, T/C",[39],21%
same,"viability, T/C",[40],17.6%
same,"viability, T/C",[7],14.1%
same,"viability, T/C",[8],16.5%
same,"viability, T/C","second compound 0.00949 µM, first compound 0.000316 µM",23.4%
same,"viability, T/C","second compound 0.00949 µM, first compound 0.001 µM",25.9%
same,"viability, T/C",[41],19.4%
same,"viability, T/C",[42],16.5%
same,"viability, T/C",[13],14.7%
same,"viability, T/C",[14],12.2%
same,"viability, T/C","second compound 0.03 µM, first compound 0.000316 µM",21.5%
same,"viability, T/C","second compound 0.03 µM, first compound 0.001 µM",17.6%
same,"viability, T/C",[43],17.5%
same,"viability, T/C",[44],16.6%
same,"viability, T/C",[19],15.4%
same,"viability, T/C",[20],15.6%
same,"viability, T/C","second compound 0.0949 µM, first compound 0.000316 µM",17.8%
same,"viability, T/C","second compound 0.0949 µM, first compound 0.001 µM",15.4%
same,"viability, T/C",[45],16.9%
same,"viability, T/C",[46],15.2%
same,"viability, T/C",[25],12.2%
same,"viability, T/C",[26],12.5%
same,"viability, T/C","second compound 0.3 µM, first compound 0.000316 µM",15.4%
same,"viability, T/C","second compound 0.3 µM, first compound 0.001 µM",18.8%
same,"viability, T/C",[47],15.2%
same,"viability, T/C",[48],15.1%
same,"viability, T/C",[31],12.3%
same,"viability, T/C",[32],10.2%
CC(Nc1ccc2c(c1)OCCn1cc(N3C(=O)OCC3C(F)F)nc1-2)C(N)=O (stereo not drawn) + CCn1c(-c2cccnc2C(C)OC)c2c3cc(ccc31)N1CCOC(CC(NC(=O)C(C(C)C)N(C)C(=O)C3(F)CCN(C(=O)C#CC(C)(C)N(C)C)CC3)C(=O)N3CCCC(N3)C(=O)OCC(C)(C)C2)C1,IC50,second compound 0.000949 µM,< 31.6 nM
same,IC50,second compound 0.003 µM,< 31.6 nM
same,IC50,second compound 0.00949 µM,< 31.6 nM
same,IC50,second compound 0.03 µM,< 31.6 nM
same,IC50,second compound 0.0949 µM,< 31.6 nM
same,IC50,second compound 0.3 µM,< 31.6 nM
same,"viability, T/C",[1],18.2%
same,"viability, T/C",[2],15.9%
same,"viability, T/C",[3],10.3%
same,"viability, T/C",[4],9.14%
same,"viability, T/C",[5],26.9%
same,"viability, T/C",[6],6.64%
same,"viability, T/C",[7],14.5%
same,"viability, T/C",[8],11.7%
same,"viability, T/C",[9],9.43%
same,"viability, T/C",[10],9.79%
same,"viability, T/C",[11],19.8%
same,"viability, T/C",[12],5.92%
same,"viability, T/C",[13],14.6%
same,"viability, T/C",[14],11.4%
same,"viability, T/C",[15],9.65%
same,"viability, T/C",[16],6.24%
same,"viability, T/C",[17],17.5%
same,"viability, T/C",[18],5.13%
same,"viability, T/C",[19],12.7%
same,"viability, T/C",[20],10.8%
same,"viability, T/C",[21],8.08%
same,"viability, T/C",[22],5.84%
same,"viability, T/C",[23],16.7%
same,"viability, T/C",[24],4.66%
same,"viability, T/C",[25],13.7%
same,"viability, T/C",[26],9.18%
same,"viability, T/C",[27],8.36%
same,"viability, T/C",[28],5.71%
same,"viability, T/C",[29],17.2%
same,"viability, T/C",[30],3.5%
same,"viability, T/C",[31],10.9%
same,"viability, T/C",[32],8.1%
same,"viability, T/C",[33],5.84%
same,"viability, T/C",[34],3.47%
same,"viability, T/C",[35],10%
same,"viability, T/C",[36],2.74%
O=C(c1ccc(F)c(F)c1Nc1ccc(I)cc1F)N1CC(O)([C@@H]2CCCCN2)C1 + CCn1c(-c2cccnc2C(C)OC)c2c3cc(ccc31)N1CCOC(CC(NC(=O)C(C(C)C)N(C)C(=O)C3(F)CCN(C(=O)C#CC(C)(C)N(C)C)CC3)C(=O)N3CCCC(N3)C(=O)OCC(C)(C)C2)C1,IC50,second compound 0.000949 µM,< 3.16 nM
same,IC50,second compound 0.003 µM,< 3.16 nM
same,IC50,second compound 0.00949 µM,< 3.16 nM
same,IC50,second compound 0.03 µM,< 3.16 nM
same,IC50,second compound 0.0949 µM,< 3.16 nM
same,IC50,second compound 0.3 µM,< 3.16 nM
same,"viability, T/C",[37],27.1%
same,"viability, T/C",[38],26.5%
same,"viability, T/C",[1],21.4%
same,"viability, T/C",[2],16.9%
same,"viability, T/C",[3],14.8%
same,"viability, T/C",[4],14%
same,"viability, T/C",[39],23.4%
same,"viability, T/C",[40],17.8%
same,"viability, T/C",[7],16.9%
same,"viability, T/C",[8],12.3%
same,"viability, T/C",[9],10.9%
same,"viability, T/C",[10],11.7%
same,"viability, T/C",[41],26.2%
same,"viability, T/C",[42],19.9%
same,"viability, T/C",[13],16.2%
same,"viability, T/C",[14],14.1%
same,"viability, T/C",[15],11.1%
same,"viability, T/C",[16],9.8%
same,"viability, T/C",[43],19.6%
same,"viability, T/C",[44],15.5%
same,"viability, T/C",[19],14.3%
same,"viability, T/C",[20],11.5%
same,"viability, T/C",[21],11.7%
same,"viability, T/C",[22],9.56%
same,"viability, T/C",[45],16.5%
same,"viability, T/C",[46],13.1%
same,"viability, T/C",[25],13%
same,"viability, T/C",[26],9.14%
same,"viability, T/C",[27],11.8%
same,"viability, T/C",[28],10.4%
same,"viability, T/C",[47],15.7%
same,"viability, T/C",[48],13.3%
same,"viability, T/C",[31],10.9%
same,"viability, T/C",[32],9.97%
same,"viability, T/C",[33],12.4%
same,"viability, T/C",[34],12.1%
